Read-outs that look alike come from different tables or passages of the source.
Assays:
[1] = tested on: HepG2 cells; assay: HepG2 cytotoxicity counter-screen; conditions: cytotoxic activity against HepG2 cells
[2] = tested on: P. falciparum male gametocytes; assay: P. falciparum Dual Gamete Formation Assay (PfDGFA), male readout (exflagellation); assay type: cell-based, Plasmodium falciparum NF54; conditions: for Selectivity Ratio M: HepG2 Tox50 versus male IC50; for IC50: PfDGFA, 24 h incubation with gametocytes before induction, exflagellation readout, read-out: Male IC50; for HitlevelM: number of replicates with >50% inhibition in the male readout
Procedure, shortened: (§1)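 Male and female gamete formation were quantified by microscopy image analysis following 24 h incubation of mature NF54 gametocytes with compound and activation at 28°C with xanthurenic acid.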

[3] = tested on: P. falciparum female gametocytes; assay: P. falciparum Dual Gamete Formation Assay (PfDGFA), female readout (Pfs25-positive female gametes); assay type: cell-based, Plasmodium falciparum NF54; conditions: for Selectivity ratio F: HepG2 Tox50 versus female IC50; for IC50: PfDGFA, 24 h incubation with gametocytes before induction, female gamete readout, read-out: Female IC50; for HitlevelF: number of replicates with >50% inhibition in the female readout
Procedure, shortened: as §1

[4] = Plasmodium falciparum, PfDGFA at 2µM, 24h preincubation with gametocytes, average of replicates, read-out: Average inhibition male (%)
[5] = Plasmodium falciparum, PfDGFA at 2µM, 24h preincubation with gametocytes, replicate R1, read-out: % inhibition male (individual replicates) R1
[6] = Plasmodium falciparum, PfDGFA at 2µM, 24h preincubation with gametocytes, replicate R2, read-out: % inhibition male (individual replicates) R2
[7] = Plasmodium falciparum, PfDGFA at 2µM, 24h preincubation with gametocytes, replicate R3, read-out: % inhibition male (individual replicates) R3
[8] = Plasmodium falciparum, PfDGFA at 2µM, 24h preincubation with gametocytes, replicate R4, read-out: % inhibition male (individual replicates) R4
[9] = Plasmodium falciparum, PfDGFA at 2µM, 24h preincubation with gametocytes, average of replicates, read-out: Average inhibition female (%)
[10] = Plasmodium falciparum, PfDGFA at 2µM, 24h preincubation with gametocytes, replicate R1, read-out: % inhibition female (individual replicates) R1
[11] = Plasmodium falciparum, PfDGFA at 2µM, 24h preincubation with gametocytes, replicate R2, read-out: % inhibition female (individual replicates) R2
[12] = Plasmodium falciparum, PfDGFA at 2µM, 24h preincubation with gametocytes, replicate R3, read-out: % inhibition female (individual replicates) R3
[13] = Plasmodium falciparum, PfDGFA at 2µM, 24h preincubation with gametocytes, replicate R4, read-out: % inhibition female (individual replicates) R4
[14] = PfDGFA at 2µM, 24h preincubation with gametocytes, average of replicates
[15] = PfDGFA at 2µM, 24h preincubation with gametocytes, replicate R1
[16] = PfDGFA at 2µM, 24h preincubation with gametocytes, replicate R3
[17] = PfDGFA at 2µM, 24h preincubation with gametocytes, replicate R4
[18] = 2µM, 24h preincubation with gametocytes, average of replicates
[19] = 2µM, 24h preincubation with gametocytes, replicate R1
[20] = 2µM, 24h preincubation with gametocytes, replicate R3
[21] = 2µM, 24h preincubation with gametocytes, replicate R4
[22] = Plasmodium falciparum, 2µM, 24h preincubation with gametocytes, average of replicates, read-out: Average inhibition male (%)
[23] = Plasmodium falciparum, 2µM, 24h preincubation with gametocytes, replicate R1, read-out: % inhibition male (individual replicates) R1
[24] = Plasmodium falciparum, 2µM, 24h preincubation with gametocytes, replicate R2, read-out: % inhibition male (individual replicates) R2
[25] = Plasmodium falciparum, 2µM, 24h preincubation with gametocytes, replicate R4, read-out: % inhibition male (individual replicates) R4
[26] = Plasmodium falciparum, 2µM, 24h preincubation with gametocytes, average of replicates, read-out: Average inhibition female (%)
[27] = Plasmodium falciparum, 2µM, 24h preincubation with gametocytes, replicate R1, read-out: % inhibition female (individual replicates) R1
[28] = Plasmodium falciparum, 2µM, 24h preincubation with gametocytes, replicate R2, read-out: % inhibition female (individual replicates) R2
[29] = Plasmodium falciparum, 2µM, 24h preincubation with gametocytes, replicate R3, read-out: % inhibition female (individual replicates) R3
[30] = Plasmodium falciparum, 2µM, 24h preincubation with gametocytes, replicate R4, read-out: % inhibition female (individual replicates) R4

Row | SMILES | Tox50 [1] [µM] | Selectivity Ratio M [2] | inhibition at 2 µM [2, 4] [%] | inhibition at 2 µM [2, 5] [%] | inhibition at 2 µM [2, 6] [%] | inhibition at 2 µM [2, 7] [%] | inhibition at 2 µM [2, 8] [%] | IC50 ([2]; Plasmodium falciparum) [µM] | HitlevelM ([2]; 2µM) | Selectivity ratio F [3] | inhibition at 2 µM [3, 9] [%] | inhibition at 2 µM [3, 10] [%] | inhibition at 2 µM [3, 11] [%] | inhibition at 2 µM [3, 12] [%] | inhibition at 2 µM [3, 13] [%] | IC50 ([3]; Plasmodium falciparum) [µM] | HitlevelF ([3]; 2µM) | IC50 [2] [µM] | further results
1 | COc1cc2c(cc1S(=O)(=O)c1ccc(COc3ccc(C(F)(F)F)cc3)cc1)CNCC2.Cl [TCMDC-134479] | 16.6 | 11.99 | 89.2 | 89.3 | 88 | 76 | 104 | 1.38 | 4 | 1.66 | 10 | 16.9 | 9.1 | -0.43 | 14.6 | > 10 | 0 |  | 
2 | CC(C#N)Cc1ccc(-c2cnc(N)c3cc(-c4ccnc(N)n4)ccc23)cc1 (stereo not shown) [TCMDC-134547] | 2.39 | 7.45 |  |  |  |  |  |  | 4 | 0.24 |  |  |  |  |  |  | 0 | 0.32 | Average inhibition male (%) [2, 14]: 85.1%; % inhibition male (individual replicates) R1 [2, 15]: 91.7%; % inhibition male (individual replicates) R3 [2, 16]: 80.2%; % inhibition male (individual replicates) R4 [2, 17]: 74.9%; Average inhibition female (%) [3, 14]: 0.03%; % inhibition female (individual replicates) R1 [3, 15]: 9.4%; % inhibition female (individual replicates) R3 [3, 16]: -8.0%; % inhibition female (individual replicates) R4 [3, 17]: 0.7%
3 | COc1cccc(OC)c1CN1CCC(N(C)CCCCCCCCCN2CCC(OC(=O)Nc3ccccc3-c3ccccc3)CC2)CC1 [TCMDC-134690] | 3.03 | 1.95 |  |  |  |  |  |  |  | 0.8 |  |  |  |  |  |  |  | 1.56 | Average inhibition male (%) [2, 18]: 94.5%; % inhibition male (individual replicates) R1 [2, 19]: 97.5%; % inhibition male (individual replicates) R3 [2, 20]: 83.2%; % inhibition male (individual replicates) R4 [2, 21]: 100.9%; Average inhibition female (%) [3, 18]: 49.9%; % inhibition female (individual replicates) R1 [3, 19]: 26.2%; % inhibition female (individual replicates) R3 [3, 20]: 20.7%; % inhibition female (individual replicates) R4 [3, 21]: 73.0%; IC50 [3]: 3.8 µM
4 | Cc1cccc(Nc2nc(N[C@@H]3CCCNC3)nc3cc[nH]c(=O)c23)c1.O=C(O)C(F)(F)F [TCMDC-134835] | 4.45 | 21.63 |  |  |  |  |  | 0.21 |  | 0.58 |  |  |  |  |  | 7.69 |  |  | inhibition at 2 µM [2, 22]: 97.3%; inhibition at 2 µM [2, 23]: 96.8%; inhibition at 2 µM [2, 24]: 100%; inhibition at 2 µM [2, 25]: 94.9%; inhibition at 2 µM [3, 26]: -0.142%; inhibition at 2 µM [3, 27]: 6.3%; inhibition at 2 µM [3, 28]: 4.6%; inhibition at 2 µM [3, 29]: -8.3%; inhibition at 2 µM [3, 30]: -3.2%
5 | Cc1cccc(Nc2nc(NCCCCN)nc3cc[nH]c(=O)c23)c1.O=C(O)C(F)(F)F [TCMDC-134946] | 28.66 | 75.16 | 89.5 | 94.1 | 93.5 | 87.3 | 82.9 | 0.38 | 4 | 2.87 | 9 | 6.6 | 23 | 13.1 | -6.7 | > 10 | 0 |  | 
6 | O=C(O)C(F)(F)F.O=c1[nH]ccc2nc(N[C@@H]3CCCNC3)nc(Nc3ccc(S(=O)(=O)N4CCOCC4)cc3)c12 [TCMDC-135038] | 21.89 | 342.32 |  |  |  |  |  | 0.06 |  | 2.68 |  |  |  |  |  | 8.17 |  |  | inhibition at 2 µM [2, 22]: 97.4%; inhibition at 2 µM [2, 23]: 93.1%; inhibition at 2 µM [2, 24]: 99.1%; inhibition at 2 µM ([2]; Plasmodium falciparum, 2µM, 24h preincubation with gametocytes, replicate R3, read-out: % inhibition male (individual replicates) R3): 99.2%; inhibition at 2 µM [2, 25]: 98.2%; inhibition at 2 µM [3, 26]: 14.1%; inhibition at 2 µM [3, 27]: 2.2%; inhibition at 2 µM [3, 28]: 10.6%; inhibition at 2 µM [3, 29]: 4.3%; inhibition at 2 µM [3, 30]: 39.1%
7 | O=C(O)C(F)(F)F.O=c1[nH]ccc2nc(N[C@@H]3CCNC3)nc(Nc3cc(Cl)cc(Cl)c3)c12 [TCMDC-135052] | 7.37 | 4.82 |  |  |  |  |  |  |  | 1.49 |  |  |  |  |  |  |  | 1.53 | Average inhibition male (%) [2, 18]: 90.0%; % inhibition male (individual replicates) R1 [2, 19]: 96.4%; % inhibition male (individual replicates) R3 [2, 20]: 98.4%; % inhibition male (individual replicates) R4 [2, 21]: 88.5%; Average inhibition female (%) [3, 18]: 61.3%; % inhibition female (individual replicates) R1 [3, 19]: 75.7%; % inhibition female (individual replicates) R3 [3, 20]: 60.7%; % inhibition female (individual replicates) R4 [3, 21]: 86.1%; IC50 [3]: 4.94 µM
8 | COCCN(C)CCCOc1cc2c(cc1OC)ncn2-c1cc(OCc2ccccc2C(F)(F)F)c(C(N)=O)s1.Cl [TCMDC-135214] | 13.65 | 22.02 | 64.6 | 90.7 | 80.9 | 65.9 | 20.9 | 0.62 | 3 | 1.36 | 20.2 | 22.9 | 10 | 11 | 36.6 | > 10 | 0 |  | 
9 | COc1ccc2nc(-c3cc(-c4ccc(NC(=O)C(C)C)cc4)cnc3N)[nH]c2c1 [TCMDC-135322] | 8.38 | 19.53 | 72 | 76.6 | 80.3 | 78.9 | 52.3 | 0.43 | 4 | 0.84 | -9 | -9.8 | -5.2 | -4.1 | -17 | > 10 | 0 |  | 
10 | COc1ccc2nc(-c3cc(-c4ccc(NC(C)=O)cc4)cnc3N)[nH]c2c1 [TCMDC-135365] | 3.08 | 5.74 |  |  |  |  |  | 0.54 |  | 0.31 |  |  |  |  |  | > 10 |  |  | HitlevelM ([2]; 2µM, 24h preincubation): 3; inhibition at 2 µM ([2]; Plasmodium falciparum, 2µM, 24h preincubation with gametocytes prior to induction of gametogenesis, average of replicates, read-out: Average inhibition male (%)): 61.3%; inhibition at 2 µM ([2]; Plasmodium falciparum, 2µM, 24h preincubation with gametocytes prior to induction of gametogenesis, replicate R1, read-out: % inhibition male (individual replicates) R1): 62.6%; inhibition at 2 µM ([2]; Plasmodium falciparum, 2µM, 24h preincubation with gametocytes prior to induction of gametogenesis, replicate R2, read-out: % inhibition male (individual replicates) R2): 72.6%; inhibition at 2 µM ([2]; Plasmodium falciparum, 2µM, 24h preincubation with gametocytes prior to induction of gametogenesis, replicate R3, read-out: % inhibition male (individual replicates) R3): 63.7%; inhibition at 2 µM ([2]; Plasmodium falciparum, 2µM, 24h preincubation with gametocytes prior to induction of gametogenesis, replicate R4, read-out: % inhibition male (individual replicates) R4): 46.2%; HitlevelF ([3]; 2µM, 24h preincubation): 0; inhibition at 2 µM ([3]; Plasmodium falciparum, 2µM, 24h preincubation with gametocytes prior to induction of gametogenesis, average of replicates, read-out: Average inhibition female (%)): -1.9%; inhibition at 2 µM ([3]; Plasmodium falciparum, 2µM, 24h preincubation with gametocytes prior to induction of gametogenesis, replicate R1, read-out: % inhibition female (individual replicates) R1): -7.6%; inhibition at 2 µM ([3]; Plasmodium falciparum, 2µM, 24h preincubation with gametocytes prior to induction of gametogenesis, replicate R2, read-out: % inhibition female (individual replicates) R2): 14.6%; inhibition at 2 µM ([3]; Plasmodium falciparum, 2µM, 24h preincubation with gametocytes prior to induction of gametogenesis, replicate R3, read-out: % inhibition female (individual replicates) R3): -10.3%; inhibition at 2 µM ([3]; Plasmodium falciparum, 2µM, 24h preincubation with gametocytes prior to induction of gametogenesis, replicate R4, read-out: % inhibition female (individual replicates) R4): -4.4%

Reference: paper PMC10584170, “Machine learning-based phenotypic imaging to characterise the targetable biology of Plasmodium falciparum male gametocytes for the development of transmission-blocking antimalarials” (PLOS Pathogens, 2023)
